From US9714249B2 (Novartis AG, priority 2013, dated 2017) come the findings set out here.

One assay has as its system K-562 cells. Briefly: Cell growth inhibition assay (CellTiter-Glo), K-562. Format: cell-based, human. To be noted: K-562, 4 days; for GI50: Homo sapiens, K562, 96 h, half-maximal growth inhibition; for K-562 TGI: total growth inhibition. As for the experimental part: The human leukemia cell lines MV-4-11, THP-1 and K-562 were employed to characterize the effect of BET inhibitors on cellular proliferation and viability. Cells were obtained from the American Type Culture Collection (ATCC) and cultured at 37° C. in a humidified 5% CO2 incubator in the following media: MV-4-11: DMEM high glucose (Animed #1-26F01-I), 10% FCS (Animed #2-01F26-I), 4 mM L-Glutamine (Animed #5-10K50), 1 mM Sodium Pyruvate (Animed # G03625P), 1× Penicillin-Streptomycin (Animed # F12478P); K-562: Iscove's MEM (Animed #1-28F16-I), 10% FCS (Animed #2-01F26-I), 4 mM L-Glutamine (Animed #5-10K50), 1× Penicillin-Streptomycin (Animed # F12478P); THP-1: RPMI-1640 (Animed #1-41F01-I), 10% FCS (Animed #2-01F26-I), 2 mM L-Glutamine (Animed #5-10K50), 10 mM HEPES (Animed #5-31F100), 1 mM Sodium Pyruvate (Animed # G03625P), 1× Penicillin-Streptomycin (Animed # F12478P). The AML lines MV-4-11 and THP-1 are very sensitive to BET inhibitors and show massive cell death upon BET inhibition (Zuber et al., Nature, 478 (2011), 524-8). Compound-mediated suppression of cell proliferation/viability was assessed by quantification of cellular ATP levels using the CellTiter-Glo (CTG) reagent (Promega). Briefly, cells were seeded in 20 μl fresh medium into 384-well plates, followed by addition of 5 μl medium containing compound dilutions at 5-fold their final intended concentration. Dose-response effects were assessed by 3-fold serial dilutions of the test compound, starting at 10 μM. Following incubation of the cells for 4 days at 37° C. and 5% CO2, the effect of inhibitors on cell viability was quantified following addition of 20 μl CTG and luminescence quantification (integration time: 100 ms) as per vendor manual, using a correspondingly equipped Tecan M200 multi-mode platereader (TECAN, Switzerland). For data analysis, the assay background value determined in wells containing medium, but no cells, was subtracted from all data points. To enable differentiation of cytotoxic from cytostatic compounds, the number of viable cells is assessed relative to that observed at the time of compound addition using a separate cell plate (day 0). The effect of a particular test compound concentration on cell proliferation/viability is expressed as percentage of the background- and day 0-corrected luminescence reading obtained for cells treated with vehicle only (DMSO, 0.1% final concentration), which is set as 100%, whereas that luminescence reading for wells containing medium is set as −100%. Compound concentrations leading to half-maximal (1050) and total growth inhibition (TGI) were determined using standard four parameter curve fitting.

A further assay addresses BRD4 (His-Brd4(44-477)) (Homo sapiens (Human), UniProt O60885). As to the kind of experiment: TR-FRET in-vitro binding assay for BRD4. To be noted: acetyl-histone H4 peptide. As for the experimental part:
All assays were performed in 384 well microtiter plates. Each assay plate contained 8-point serial dilutions for 40 test compounds, plus 16 high- and 16 low controls. Liquid handling and incubation steps were done on an Innovadyne Nanodrop Express equipped with a robotic arm (Thermo CatX, Perkin Elmer/Caliper Twister II) and an incubator (Liconic STX40, Thermo Cytomat 2C450). The assay plates were prepared by addition of 50 nl per well of compound solution in 90% DMSO HummingBird nanodispenser (Zinsser Analytic). […] Reactions were incubated at 30° C. for 35 minutes. […] After 35 minutes incubation at 30° C., plates were measured in a Perkin Elmer EnVision multilabel reader.
Test compounds were dissolved in DMSO (10 mM) and transferred into 1.4 mL flat bottom or V-shaped Matrix tubes carrying a unique 2D matrix. The stock solutions were stored at […] if not used immediately. For the test procedure the vials were defrosted and identified by a scanner whereby a working sheet was generated that guided the subsequent working steps. Compound dilutions were made in 96 well plates. This format enabled the assay of maximally 40 individual test compounds at 8 concentrations (single points) including 4 reference compounds, if desired (known BET inhibitors from the prior art, for this and other assays of the type disclosed herein). The dilution protocol included the production of “pre-dilution plates”, “master plates” and “assay plates”.
Pre-dilution plates: 96 polypropylene well plates were used as pre-dilution plates. A total of 4 pre-dilution plates were prepared including 10 test compounds each on the plate positions A1-A10, one standard compound at A11 and one DMSO control at A12. All dilution steps were done on a HamiltonSTAR robot. […] These plates were used directly for the assay which was performed in a total volume of 13.55 μL. […] Cell Growth Inhibition Assay

Each structure is given as a SMILES string.

As to `Cc1[nH]nc2c1C(=O)N(c1cc(Cl)c(=O)n(C)c1)[C@@H]2c1ccc(Cl)cc1` [Example 28, (R)-5-(5-chloro-1-methyl-6-oxo-1,6-dihydropyridin-3-yl)-6-(4-chlorophenyl)-3-methyl-5,6-dihydropyrrolo[3,4-c]pyrazol-4(2H)-one], in the assay with K-562 cells, the GI50 was found to be 318 nM and the “K-562 TGI” value is more than 10000 nM. The same compound displayed a concentration for half-maximal inhibition (IC50) on BRD4 (His-Brd4(44-477)) of 160 nM.
The matching figures for `COc1ccc(-n2nc(C)c3c2C(c2ccc(Cl)cc2)N(c2cc(C)c(=O)n(C)c2)C3=O)cn1` (stereo not drawn) [Example 20b, 6-(4-chlorophenyl)-5-(1,5-dimethyl-6-oxo-1,6-dihydropyridin-3-yl)-1-(6-methoxypyridin-3-yl)-3-methyl-5,6-dihydropyrrolo[3,4-c]pyrazol-4(1H)-one]: 239 nM, more than 10000 nM and 56 nM.
For the compound `COc1ccc(-n2nc(C)c3c2C(c2ccc(Cl)cc2)N(c2cc(C)c(=O)n(C)c2)C3=O)cc1` (stereo not drawn) [Example 13, 6-(4-chlorophenyl)-5-(1,5-dimethyl-6-oxo-1,6-dihydropyridin-3-yl)-1-(4-methoxyphenyl)-3-methyl-5,6-dihydropyrrolo[3,4-c]pyrazol-4(1H)-one], in the assay on K-562 cells, growth was halved (GI50) at 484 nM and the “K-562 TGI” value is more than 10000 nM. The compound also returned an IC50 on BRD4 (His-Brd4(44-477)) of 103 nM.
In the same order, the values of `COc1ccc(-n2nc3c(c2C)C(=O)N(c2cc(C)c(=O)n(C)c2)C3c2ccc(Cl)cc2)cn1` (stereo not drawn) [Example 20a, 6-(4-chlorophenyl)-5-(1,5-dimethyl-6-oxo-1,6-dihydropyridin-3-yl)-2-(6-methoxypyridin-3-yl)-3-methyl-5,6-dihydropyrrolo[3,4-c]pyrazol-4(2H)-one] are 236 nM, more than 10000 nM and 62 nM.
On to `COc1ncc(-n2nc3c(c2C)C(=O)N(c2cc(Cl)c(=O)n(C)c2)C3c2ccc(Cl)cc2)cn1` (stereo not drawn) [Example 8b, 5-(5-chloro-1-methyl-6-oxo-1,6-dihydropyridin-3-yl)-6-(4-chlorophenyl)-2-(2-methoxypyrimidin-5-yl)-3-methyl-5,6-dihydropyrrolo[3,4-c]pyrazol-4(2H)-one], for which, in the assay on K-562 cells, the concentration for 50% growth inhibition (GI50) is 999 nM and the “K-562 TGI” value is more than 10000 nM. Also, the half-inhibitory concentration (IC50) at BRD4 (His-Brd4(44-477)) turned out to be 210 nM.
In the same order, the values of `COc1ncccc1-n1nc2c(c1C)C(=O)N(c1cc(C)c(=O)n(C)c1)[C@@H]2c1ccc(Cl)cc1` [Example 26, (R)-6-(4-chlorophenyl)-5-(1,5-dimethyl-6-oxo-1,6-dihydropyridin-3-yl)-2-(2-methoxypyridin-3-yl)-3-methyl-5,6-dihydropyrrolo[3,4-c]pyrazol-4(2H)-one] are 174 nM, more than 10000 nM and 91 nM.
The matching figures for `COc1ncc(-n2nc3c(c2C)C(=O)N(c2cc(C)c(=O)n(C)c2)C3c2ccc(Cl)cc2)cn1` (stereo not drawn) [Example 21b, 6-(4-chlorophenyl)-5-(1,5-dimethyl-6-oxo-1,6-dihydropyridin-3-yl)-2-(2-methoxypyrimidin-5-yl)-3-methyl-5,6-dihydropyrrolo[3,4-c]pyrazol-4(2H)-one]: 510 nM, more than 10000 nM and 110 nM.
In the same order, the values of `COc1ncccc1-n1nc2c(c1C)C(=O)N(c1cc(C)c(=O)n(C)c1)C2c1ccc(Cl)cc1` (stereo not drawn) [Example 17b, 6-(4-chlorophenyl)-5-(1,5-dimethyl-6-oxo-1,6-dihydropyridin-3-yl)-2-(2-methoxypyridin-3-yl)-3-methyl-5,6-dihydropyrrolo[3,4-c]pyrazol-4(2H)-one] are 154 nM, more than 10000 nM and 56 nM.
Turning to `COc1ncc(-n2nc3c(c2C)C(=O)N(c2cc(C)c(=O)n(C)c2)C3c2ccc(Cl)cc2)c(OC)n1` (stereo not drawn) [Example 14, 6-(4-chlorophenyl)-2-(2,4-dimethoxypyrimidin-5-yl)-5-(1,5-dimethyl-6-oxo-1,6-dihydropyridin-3-yl)-3-methyl-5,6-dihydropyrrolo[3,4-c]pyrazol-4(2H)-one], in the assay on K-562 cells, the 50% growth inhibitory concentration (GI50) is 615 nM and the “K-562 TGI” value was more than 10000 nM. Moreover, on BRD4 (His-Brd4(44-477)), the 50% inhibitory concentration (IC50) was found to be 100 nM.
For the compound `Cc1cc(N2C(=O)c3c(C4CC4)nn(-c4ccnn4C)c3C2c2ccc(Cl)cc2)cn(C)c1=O` (stereo not drawn) [Example 5, 6-(4-chlorophenyl)-3-cyclopropyl-5-(1,5-dimethyl-6-oxo-1,6-dihydropyridin-3-yl)-1-(1-methyl-1H-pyrazol-5-yl)-5,6-dihydropyrrolo[3,4-c]pyrazol-4(1H)-one], in the assay on K-562 cells, halving of growth (GI50) required 658 nM and the “K-562 TGI” value is more than 10000 nM. The compound further had an IC50 at BRD4 (His-Brd4(44-477)) of 96 nM.
In the same order, the values of `Cc1nn(C(C)C)c2c1C(=O)N(c1cc(C)c(=O)n(C)c1)C2c1ccc(Cl)cc1` (stereo not drawn) [Example 12, 6-(4-chlorophenyl)-5-(1,5-dimethyl-6-oxo-1,6-dihydropyridin-3-yl)-1-isopropyl-3-methyl-5,6-dihydropyrrolo[3,4-c]pyrazol-4(1H)-one] are 193 nM, more than 10000 nM and 67 nM.
In the same order, the values of `CCOc1ncccc1-n1nc2c(c1C)C(=O)N(c1cc(C)c(=O)n(C)c1)C2c1ccc(Cl)cc1` (stereo not drawn) [Example 18b, 6-(4-chlorophenyl)-5-(1,5-dimethyl-6-oxo-1,6-dihydropyridin-3-yl)-2-(2-ethoxypyridin-3-yl)-3-methyl-5,6-dihydropyrrolo[3,4-c]pyrazol-4(2H)-one] are 149 nM, more than 10000 nM and 41 nM.
